Results as given in patent publication US20110076318A1, “RETINOID-CONTAINING SUSTAINED RELEASE INTRAOCULAR IMPLANTS AND RELATED MATTERS” (Allergan, Inc., priority 2004, published 2011).
Where two headings read alike, the source gives them in different places.

Tests used:
[1] = tested on: photoreceptors; test: Rhodopsin mutant transgenic rat models of retinal degeneration; assay type: in vivo, Transgenic S334ter rats; conditions: i.p., S334ter line 3 and line 4
Description: The objective of this study was to determine the efficacy of various retinoids in preventing retinal damage or improving retinal survival in rhodopsin mutant transgenic rat models of retinal degeneration. The overall goal of the research was to investigate potential photoreceptor survival in mutant rhodopsin transgenic rats using RAR α, RAR β γ, and RXR retinoid agonists.
The experimental design was straightforward. A compound was injected daily to line 3 and every two days for line 4 animals (i.p.) for a given period and animals were sacrificed at the end by CO2 overdose followed immediately by vascular perfusion of mixed aldehydes. Two litters of rats were used:
1. Transgenic S334ter-3 rats. Line 3 bears a rhodopsin mutation S334ter. […] Injection of a compound will be given daily from PD 6 (post-delivery day 6) to PD 20.
2. Transgenic S334ter-4 rats. Line 4 bears a rhodopsin mutation S334ter. Animals of this line experience a 80% loss of photoreceptors by 60 days after birth. The ONL is reduced to one row of nuclei. Injection of a compound will be given every other day from PD 25 to PD 60.
For the line 3 animals, treatment started at PD 6 and the endpoint was PD 20. For the line 4, injection began at PD 25 and ended at PD60 when eyes were harvested. Eyes were embedded in an Epon/Araldite mixture for sectioning at 1 μm thickness along the vertical meridian. Protection of photoreceptors was be evaluated by counting the rows of nuclei in the outer nuclear layer.
The outcome was a measure of retinal outer layer thickness, and cytology over an 8 week period. Compounds included the retinoid agonists tazarotene (RAR β γ), AGN 195183 (RAR α) and AGN 194204 (RXR). […] This is a fairly harsh model and as such the modest improvement by tazarotene is quite significant.

[2] = tested on: PVR; conditions: orally administered, retrospective study; cited from earlier work
[3] = tested on: PVR induced by human RPE cells; test: PVR model with retinoid implants, Fastenberg scale; assay type: in vivo; conditions: at 28 days; 10% loaded PLA/PLGA implants, intravitreal
From the text: PLA and PLGA implants 1.5 mm in diameter and 3 mm in length were fabricated by extrusion of the polymer drug blend. Tazarotenic acid (the free acid of Tazarotene) Tazarotene and 13-cis-retinoic acid were loaded into the implants at 10% concentrations. Briefly, pigmented rabbits were vitrectomized followed by intravitreal injection of 500,000 human RPE cells. After injection of the RPE cells the retinoid implants were placed into the vitreous and anchored to the sclera with the suture used to close the sclerotomy.
The eyes were examined weekly for 4 weeks. Severity of PVR was graded based on the Fastenberg scale. At 4 weeks gross pathology and limited histopathology were conducted.

[4] = tested on: traction retinal detachment (PVR); conditions: cited from earlier work
[5] = tested on: RPE proliferation; conditions: biphasic, read-out: IC50, prevention of RPE proliferation in-vitro (biphasic), cited from earlier work
[6] = cited from earlier work
[7] = Plasma concentrations after topical and oral dosing of tazarotene; assay type: in vivo, patients; conditions: for Cmax: human; for Cmax / TAZAROTENIC ACID Ctrough: plasma
Description: […] For the most part tazarotene is not observed in the plasma after topical or oral administration. Facile hydrolysis by pre-systemic metabolism rapidly generates the free acid. […] It is important to note that these are plasma concentrations and the eye plasma distribution ratio is 0.02. Over 90% of all patients in the phase 3 clinical trials had concentrations of the parent compound, tazarotene, <1 ng/mL with the highest being 6 ng/mL.
(§1) Oral delivery of 1.1 mg and 6 mg multiple doses led to 28.9 ng/mL and 227 ng/ml peak levels with a 2.56 ng/mL trough. This corresponds to a maximum possible 4 ng/mL ocular level for the highest dose. FIG. 11 depicts the tissue distribution of tazarotenic acid. The eyes show a 2% tissue/plasma ration in the rat. It should be noted that tazarotenic acid is 99% protein bound and distribution is limited to unbound drug.

[8] = Ocular disposition of tazarotene and tazarotenic acid after intravitreal and subconjunctival dosing; assay type: in vivo, albino rabbits
Description: General disposition of intraocular and subconjunctivally administered tazarotene and tazarotenic acid was assessed. Briefly, albino rabbits were dosed via intraocular injection with 1.25 μg of tazarotene or tazarotenic acid. Injection was made mid-vitreous. After dosing the vitreous, retina and aqueous humor concentrations of tazarotene and tazarotenic acid were determined at 0.5, 1, 2, 4, 8, 12 and 24 hours post dosing. […] Additionally, the tazarotenic acid concentrations asymptotically approach approximately 10 ng/mL.
Tazarotene was also dosed in the subconjunctival space. Three dosage forms were evaluated: A tazarotene aqueous suspension (1 mg), a tazarotene subconjunctival olive oil solution (1 mg), and an tazarotene poly (lactide-co-glycolide) microsphere suspension. After dosing, the vitreous, retina and aqueous humor concentrations of tazarotene and tazarotenic acid were determined at 2, 8, 24, 48, 96, 168 and 336 hours post dosing. It was observed that subconjunctival administration achieved significant levels of tazarotene and tazarotenic acid in the ocular tissues.
Briefly, albino rabbits were dosed via intraocular injection with 1.25 μg of tazarotene or tazarotenic acid. Injection was made mid-vitreous. After dosing the vitreous, retina and aqueous humor concentrations of tazarotene and tazarotenic acid were determined at 0.5, 1, 2, 4, 8, 12 and 24 hours post dosing. […]

[9] = Tissue-to-plasma distribution after daily topical 14C-tazarotene; assay type: in vivo; conditions: rat
Description: FIG. 11 is a graph illustrating tissue-to-plasma concentration ratios of after twenty-one days of daily topical application of 14C-tazarotene to the skin of rats.
as §1

[10] = Protein binding of tazarotenic acid; assay type: in vitro ADME
[11] = Five to ten μg in a silicone oil tamponade

CC(/C=C/[C@@H]1C[C@]1(C)c1ccc2c(c1)C(C)(C)CCC2(C)C)=C\C(=O)O [AGN 194204]
protection of photoreceptors (outer nuclear layer) [1]: Tazarotene was the only compound to show efficacy

CC1(C)CCC(C)(C)c2c1cc(C(=O)Nc1cc(F)c(C(=O)O)c(F)c1)c(O)c2Cl [AGN 195183]
protection of photoreceptors (outer nuclear layer) [1]: Tazarotene was the only compound to show efficacy

CC1=C(/C=C/C(C)=C/C=C/C(C)=C\C(=O)O)C(C)(C)CCC1 [Isotretinoin, 13-cis-retinoic acid]
effect on PVR and retinal attachment [2]: effective at decreasing PVR and increasing the rate of retinal attachment
eyes progressed to traction retinal detachment [3]: 22%
traction retinal detachment in animal model of PVR [4, 11]: effectively prevent traction retinal detachment

CC1=C(/C=C/C(C)=C/C=C/C(C)=C/C(=O)O)C(C)(C)CCC1 [RA, All trans-retinoic acid]
IC50 ([5]; first value): 0.01 nM
IC50 ([5]; second value): 17 nM
ocular toxicity by histopathology and ophthalmoscopic examination ([6]; five to ten μg in silicone oil): no ocular toxicity
concentration well tolerated with no ERG changes ([6]; in vivo): up to 15 μg/mL
traction retinal detachment in animal model of PVR [4, 11]: effectively prevent traction retinal detachment
traction retinal detachment in animal model of PVR ([4]; Ten and 15 μg in 1-% hyaluronic acid and BSS): reduced traction retinal detachment

CC1(C)CCSc2ccc(C#Cc3ccc(C(=O)O)cn3)cc21 [Tazarotenic Acid, 4,4-dimethyl-6-[2′-(5″-carboxy-2″-pyridyl)-ethynyl]-thiochroman]
maximum possible ocular level ([7]; highest oral dose (6 mg)): ≤ 4 ng/mL
Cmax ([7]; po, 1.1 mg/Day, Oral 1.1 mg/Day, read-out: TAZAROTENIC ACID Cmax): 28.9 ng/mL
Cmax ([7]; po, 3 mg/Day, Oral 3.0 mg/Day, read-out: TAZAROTENIC ACID Cmax): 81.6 ng/mL
Cmax ([7]; po, 6 mg/Day, Oral 6.0 mg/Day, read-out: TAZAROTENIC ACID Cmax): 227 ng/mL
Cmax ([7]; topical or ocular, 0.1 % gel, Topical Gel 0.1% 2% BSA, read-out: TAZAROTENIC ACID Cmax): 0.241 ng/mL
Cmax ([7]; topical or ocular, 0.1 % gel, Topical Gel 0.1% 7% BSA, read-out: TAZAROTENIC ACID Cmax): 0.83 ng/mL
Cmax ([7]; topical or ocular, 0.1 % gel, Topical Gel 0.1% 15% BSA, read-out: TAZAROTENIC ACID Cmax): 4.8 ng/mL
Cmax ([7]; topical or ocular, 0.1 % gel, Topical Gel 0.1% 20% BSA, read-out: TAZAROTENIC ACID Cmax): 12 ng/mL
Cmax ([7]; topical or ocular, 0.1 % gel, Topical Gel 0.1% Phase 3, in 90%, read-out: TAZAROTENIC ACID Cmax): < 1 ng/mL
Cmax ([7]; topical or ocular, range over topical studies, read-out: Tazarotenic acid plasma concentrations (Cmax) from topical administration): 0.25 to 12 ng/mL
TAZAROTENIC ACID Ctrough ([7]; Oral 6.0 mg/Day, listed as TAZAROTENIC ACID): Ctrough 2.56 ng/mL
TAZAROTENIC ACID Ctrough ([7]; Oral 6.0 mg/Day, listed as tazarotenic acid): 2.56 ng/mL
maximal vitreous concentration of tazarotenic acid (asymptote) ([8]; after intraocular injection of 1.25 μg tazarotene): approximately 10 ng/mL
half-life ([8]; albino, rabbit, vitreous, other: intraocular injection, mid-vitreous, 1.25 ug, midvitreous dosing of 1.25 μg tazarotenic acid, read-out: vitreous elimination half-life (converted)): 4.24 h
eyes tissue/plasma ratio ([9]; FIG. 11): 2%
Kp at 21 days ([9]; eye, topical, read-out: eye plasma distribution ratio): 0.02
eyes progressed to traction retinal detachment [3]: 12%
protein bound [10]: 99%
